According to patent publication US20200054646A1, “USE OF PHENOTHIAZINE DERIVATIVE IN THE TREATMENT OF INFECTIOUS PURPURA OR PURPURA FULMINANS” (priority 2016, published 2020):

Key:
[1] = system: N. meningitidis Nm2C4.3 strain; experiment: Bactericidal activity on N. meningitidis in liquid culture (colony forming unit count); type: cell-based, Neisseria meningitidis; conditions: for viable count of the culture that contained 10^7 CFU/ml: 15 min treatment
Description: N. meningitidis Nm2C4.3 strain grown in liquid culture at 10^7 CFU/ml were treated with increasing concentrations of Trifluoperazine (10 to 50 μM) or Gentamicin (150 μg/ml) for 15 minutes (A) Bactericidal activity was determined by the count of colony forming units on GCB agar plates 24 h after treatment. (B) Images of the non-treated bacteria or bacteria treated with 30 μM TFP grown for 24 h on GCB agar plates.
Nm2C4.3, a piliated capsulated Opa^−Opc^− variant of the serogroup C meningococcal clinical isolate 8013, was cultured in Dulbecco's Modified Eagle Medium (DMEM) 4.5 g/L-Glutamax media 0,1% BSA during two hours at 37° C. 5% C02. A bacterial suspension at optical density (OD) 0.1 was then distributed in 24-well plate (1 ml/well). After 1 hour of incubation, Trifluoperazine (Sigma #T8516, stock solution in PBS) was added to obtain final concentrations of 10, 20, 30, 40, and 50 μM. Gentamicin (150 μg/ml in DMEM) and PBS alone were used as controls. After 15 min treatment, serial dilutions were performed in physiological water and 100 μl of each dilution were plated on Petri dishes containing GCB solid media (BD, Difco GC media) containing supplements, incubated overnight and the colony forming units were counted.

[2] = system: Nm2C4.3 microcolonies on HBMEC; experiment: Dispersion of meningococcal microcolonies at the surface of infected human endothelial cells; type: cell-based, Neisseria meningitidis
Description: Human […] microvascular endothelial cells (HBMEC) were infected with Nm2C4.3 for 1 h 30, treated with Trifluoperazine (10-40 μM) for 30 minutes, before fixation and immunofluorescence analysis using anti-Nm2C4.3 antibody and Alexa Fluor 633 Phalloidin. (A) Representative fluorescence microscopy showing bacterial colony (white dots) formed at the surface of the endothelial cells. (B) Quantification of the bacterial colonization was performed using Image J software.
HBMEC, a human endothelial cell line isolated from bone marrow capillaries (Schweitzer et al., 1997) were grown in Dulbecco's Modified Eagle Medium (DMEM) 4.5 g/L-Glutamax (ThermoFischer) 10% FBS. Cells were grown on Thermanox coverslips coated with gelatin 2% (BD Difco #214340) for 2 days to reach confluency. Cells were then infected with a suspension of Nm2C4.3 (˜10^7 CFU/ml) in DMEM/FBS during 30 minutes to allow bacterial adhesion. Cells were then washed three times with medium to remove non-adherent bacteria and infection was pursued for 1 h 30: adherent bacteria grew at the endothelial cell surface and formed micro-colonies. Trifluoperazine was then added to obtain final concentrations of 10, 20, 30 and 40 μM. After incubation for 30 minutes, cells were washed and fixed in 4% Paraformaldehyde for 10 min, washed three times with PBS, and permeabilized with 0.1% Triton X-100 in PBS for 10 min. Cells were blocked for 30 min with 3% BSA in PBS and were incubated for 2 h with the primary antibodies (Rabbit polyclonal anti-Nm2C4.3 strain, kindly provided by Dr X. Nassif, INEM, Paris). After three washes with PBS, cells were incubated for 1 h with […] anti-rabbit IgG (Jackson ImmunoResearch Laboratories), together with Alexa Fluor 633 Phalloidin (Thermofischer) and DAPI (0.5 mg ml-1, Sigma Aldrich) to stain Actin and nuclei, respectively. Labelled preparations were mounted in Glycergel media (DAKO) and image acquisitions were performed with a DM16000 microscope (Leica, X40). Quantification was done with ImageJ software (NIH). Results are presented as a vascular colonisation index corresponding to the area occupied by the fluorescently labelled bacteria per fields in relation to the area occupied by the fluorescently labelled human endothelial cells (Actin staining). Statistical analysis were performed with Student t test.

[3] = system: type IV pili of N. meningitidis 2C4.3 and isogenic PilT mutant; experiment: Aggregation and type IV pili of wild type and PilT mutant (phase-contrast and transmission electron microscopy); type: cell-based, Neisseria meningitidis
Description: N. meningitidis 2C4.3 wild type strain and the isogenic derivative mutant PilT ([…]PilT) were grown in liquid culture at 10^7 CFU/ml for 2 h to form bacterial aggregates and then treated with 50 μM Trifluoperazine. Time lapse phase-contrast video microscopy was performed to visualize the effect on bacterial aggregates over time. Images were taken at the indicated time points of the video.
N. meningitidis 2C4.3 wild type strain and the isogenic derivative mutant PilT ([…]PilT) were grown in liquid culture at 10^7 CFU/ml for 2 h to form bacterial aggregates and then treated with 50 μM Trifluoperazine for 15 minutes before analysis by transmission electron microscopy. Arrows point at bundles of type IV pili expressed at the bacterial surface.
N. meninigitidis 2C4.3 strain and the isogenic derivative mutant PilT, where the pilT gene was interrupted by an erythromycin-resistance cassette (Pujol et al., 1999), were grown in suspension in DMEM medium supplemented with 10% heat-inactivated fetal calf serum. PilT belongs to a highly conserved protein family homologous to AAA-type motor proteins and is proposed to cause the retraction of type IV pili by disassembling the pilin subunits at the base of the fiber (Morand et al., 2004). After 2 h of growth, Trifluoperazine (or control vehicle) was added at 50 μM for 20 min. The effect on bacterial aggregates were visualized over time using a phase-contrast microscope or the bacterial suspensions were fixed in 4% Paraformaldehyde for 10 min, centrifuged at 1000 rpm for 5 minutes and the bacterial pellets washed in PBS. After negative staining with 1% phosphotungstic acid, bacteria were analysed by transmission electron microscopy, using a JEOL 1011 microscope.

[4] = system: meningococcal colonization of the human dermal vasculature; experiment: In vivo infection of mice engrafted with human skin

| Compound | bactericidal effect (in words) ([1]; Gentamicin 150 μg/ml, 15 min) | dispersion of microcolonies at the endothelial cell surface ([2]; Gentamicin 150 μg/ml) | surface expression of type IV pili, PilT mutant (TEM) ([3]; 50 μM) | type IV pili on bacterial surface, wild type 2C4.3 (TEM) ([3]; 50 μM for 30 minutes) | effect on aggregation of PilT mutant strain ([3]; 50 μM, PilT mutant unable to retract type IV pili) | colonization of the human dermal vasculature ([4]; mice engrafted with human skin) | incidence of vascular alteration ([4]; mice engrafted with human skin) | signs of intravascular coagulation ([4]; mice engrafted with human skin) | hallmark of vascular inflammation ([4]; trifluoperazine alone or in combination with cefotaxime) | viable count of the culture that contained 10^7 CFU/ml ([1]; Trifluoperazine 50 μM) | viable count of the culture that contained 10^7 CFU/ml ([1]; Trifluoperazine 10 to 30 μM) | concentration range of dose-dependent microcolony dispersion ([2]; 30 min, HBMEC and primary HDMEC) | dispersion of compact microcolonies already established at the endothelial cell surface ([2]; treatment for 30 min, HBMEC (also HDMEC)) |
| --- | --- | --- | --- | --- | --- | --- | --- | --- | --- | --- | --- | --- | --- |
| CN[C@@H]1[C@@H](O)C(O[C@@H]2[C@@H](O)[C@H](O[C@H]3O[C@H]([C@@H](C)NC)CC[C@H]3N)[C@@H](N)C[C@H]2N)OC[C@]1(C)O (stereo partly drawn) [Gentamicin, (3R,4R,5R)-2-{[(1S,2S,3R,4S,6R)-4,6-diamino-3-{[(2R,3R,6S)-3-amino-6-[(1R)-1-(methylamino)ethyl]oxan-2-yl]oxy}-2-hydroxycyclohexyl]oxy}-5-methyl-4-(methylamino)oxane-3,5-diol] | killed all bacteria | poorly induced the dispersion | – | – | – | – | – | – | – | – | – | – | – |
| CN1CCN(CCCN2c3ccccc3Sc3ccc(C(F)(F)F)cc32)CC1 [Trifluoperazine] | – | – | did not affect | no longer observed | no effect | prevents the massive colonization | reduces incidence of vascular alteration | reduces the signs of intravascular coagulation | drastically reduced | 10^3 CFU/ml | 10^6 CFU/ml | 10 to 40 µM | induced their dispersion |
